Laboratory results taken from article PMC6208296, “Redox regulation of pyruvate kinase M2 by cysteine oxidation and S-nitrosation” (Biochemical Journal, 2018).
Read-outs that look alike come from different tables or passages of the source. Values belong to the molecule of their own block, whether it stands above or below them.

Assays:
Format in all cases: biochemical
[1] = molecular target: T1, M2PYK (Homo sapiens, UniProt P14618); assay: PYK enzyme activity assay, dose response with and without DTT and Ser
T1 construct: gene PKM; recombinant His-tagged WT M2 isoform
T1 sequence (P14618 2-531): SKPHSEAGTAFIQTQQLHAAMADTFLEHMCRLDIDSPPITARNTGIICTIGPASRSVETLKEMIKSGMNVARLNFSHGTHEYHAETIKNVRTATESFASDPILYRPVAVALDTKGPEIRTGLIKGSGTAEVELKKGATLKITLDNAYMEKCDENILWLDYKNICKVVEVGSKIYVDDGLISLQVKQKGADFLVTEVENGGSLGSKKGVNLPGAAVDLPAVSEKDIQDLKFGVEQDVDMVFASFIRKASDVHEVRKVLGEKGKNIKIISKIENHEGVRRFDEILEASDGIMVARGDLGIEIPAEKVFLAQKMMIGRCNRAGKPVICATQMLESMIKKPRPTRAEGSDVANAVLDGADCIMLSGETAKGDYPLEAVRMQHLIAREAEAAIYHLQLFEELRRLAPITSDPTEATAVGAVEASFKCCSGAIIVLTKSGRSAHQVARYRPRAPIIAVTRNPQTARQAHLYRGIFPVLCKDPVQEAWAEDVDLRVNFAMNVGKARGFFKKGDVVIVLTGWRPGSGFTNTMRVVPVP

[2] = molecular target: T1, M2PYK; assay: enzyme activity assay, competition of activator Ser with inhibitors Ala and Phe
[3] = molecular target: T1, M2PYK; assay: LDH-coupled enzyme assay with and without F-1,6-BP; protection from S-nitrosation (biotin switch)

- IC50 ([1]; read-out: IC50): 45 µM
Structure (SMILES): C[C@H](N)C(=O)O [L-alanine]

Structure (SMILES): N[C@@H](Cc1ccccc1)C(=O)O [L-phenylalanine]
- IC50 [1]: 57 µM

Structure (SMILES): N[C@@H](CO)C(=O)O [Ser]
- enzyme activity assay, competition of activator Ser with inhibitors Ala and Phe [2]: Increasing Ser concentration further reduces the inhibitory effect of Ala which is expected as Ala and Ser compete

Structure (SMILES): O=P(O)(O)OC[C@H]1OC(O)(COP(=O)(O)O)[C@@H](O)[C@@H]1O (stereo partly shown) [fructose 1,6-bisphosphate]
- LDH-coupled enzyme assay with and without F-1,6-BP; protection from S-nitrosatio [3]: M2PYK complexes with FBP and Phe stabilise M2PYK in a tetrameric state and reduce the amount of nitrosation
